Data taken from patent publication US20260217687A1 (NeoPhore Limited, priority 2023, published 2026).

Target: T1, recombinant N-terminal MLH1 (residues 15-340) (Homo sapiens, UniProt P40692)
T1 construct: recombinant N-terminal MLH1 (residues 15-340)
T1 sequence (P40692 15-340): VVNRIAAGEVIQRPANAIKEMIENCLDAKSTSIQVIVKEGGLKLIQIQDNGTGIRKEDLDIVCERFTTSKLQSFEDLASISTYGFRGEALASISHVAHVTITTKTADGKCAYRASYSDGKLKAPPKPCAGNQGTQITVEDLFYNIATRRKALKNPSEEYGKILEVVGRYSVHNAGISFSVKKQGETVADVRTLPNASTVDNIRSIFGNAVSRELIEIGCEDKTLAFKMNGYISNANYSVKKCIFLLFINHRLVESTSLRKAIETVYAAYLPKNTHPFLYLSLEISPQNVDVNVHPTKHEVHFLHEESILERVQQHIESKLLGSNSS
Assay: Fluorescence Polarisation Assay for MLH1
Format: binding
Conditions: 100 nM N-terminal MLH1, 5 nM probe compound
How it was run: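 Fluorescence polarisation displacement: 100 nM MLH1 (15-340) preincubated 30 min at room temperature with compound, then 5 nM rhodamine-labelled probe added and read immediately. Buffer 25 mM HEPES pH 7.5, 250 mM NaCl, 10 mM MgCl2, 0.01% Triton X-100, 5 mM DTT; normalised to no-inhibitor and no-enzyme controls.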

| SMILES | IC50 |
| --- | --- |
| CC(=O)N1CC(Nc2cccc3c2CN(C(=O)c2c(O)cc(C(F)F)cc2OCc2ccccc2)C3)C1 [Example 4.3, 1-(3-((2-(2-(Benzyloxy)-4-(difluoromethyl)-6-hydroxybenzoyl)isoindolin-4-yl)amino)azetidin-1-yl)ethan-1-one] | 100 to 1000 nM |
| O=C(c1c(O)cc(C(F)F)cc1OCc1ccccc1)N1Cc2cccc(NC3COC3)c2C1 [Example 4.4, (2-(Benzyloxy)-4-(difluoromethyl)-6-hydroxyphenyl)(4-(oxetan-3-ylamino)isoindolin-2-yl)methanone] | 100 to 1000 nM |
| CN(C)CCOc1cc2c(c(N[C@@H]3CCOC3)c1)CN(C(=O)c1c(O)cc(C#N)cc1OCc1ccccc1)C2 [Example 18, (R)-3-(Benzyloxy)-4-(6-(2-(dimethylamino)ethoxy)-4-((tetrahydrofuran-3-yl)amino)isoindoline-2-carbonyl)-5-hydroxybenzonitrile] | 100 to 1000 nM |
| CN1CCC(Oc2cc3c(c(N[C@@H]4CCOC4)c2)CN(C(=O)c2c(O)cc(C(F)F)cc2OCc2ccccc2)C3)CC1 [Example 4.63, (R)-(2-(Benzyloxy)-4-(difluoromethyl)-6-hydroxyphenyl)(6-((1-methylpiperidin-4-yl)oxy)-4-((tetrahydrofuran-3-yl)amino)isoindolin-2-yl)methanone] | 100 to 1000 nM |
| O=C(c1c(O)cc(C(F)F)cc1OCc1ccccc1)N1Cc2cccc(N[C@@H]3CCOC3)c2C1 [Example 3, (R)-(2-(Benzyloxy)-4-(difluoromethyl)-6-hydroxyphenyl)(4-((tetrahydrofuran-3-yl)amino)isoindolin-2-yl)methanone] | 100 to 1000 nM |
| CN(C)CCOc1cc2c(c(N[C@@H]3CCOC3)c1)CN(C(=O)c1c(O)cc(C#N)cc1OCc1ccccc1)CC2 [Example 14, (R)-3-(Benzyloxy)-4-(6-(2-(dimethylamino)ethoxy)-8-((tetrahydrofuran-3-yl)amino)-1,2,3,4-tetrahydroisoquinoline-2-carbonyl)-5-hydroxybenzonitrile] | 100 to 1000 nM |
| CN1CC[C@H](Oc2ccc3c(c2)CCN(C(=O)c2c(O)cc(C(F)F)cc2OCc2ccccc2)C3)C1 [Example 4.64, (S)-(2-(Benzyloxy)-4-(difluoromethyl)-6-hydroxyphenyl)(6-((1-methylpyrrolidin-3-yl)oxy)-3,4-dihydroisoquinolin-2(1H)yl)methanone] | 100 to 1000 nM |
| COc1ccc2c(c1N[C@H]1CCOC1)CN(C(=O)c1c(O)cc(C(F)F)cc1OCc1ccccc1)CC2 [Example 4.23, (S)-(2-(Benzyloxy)-4-(difluoromethyl)-6-hydroxyphenyl)(7-methoxy-8-((tetrahydrofuran-3-yl)amino)-3,4-dihydroisoquinolin-2(1H)-yl)methanone] | 1000 to 10000 nM |
| CN(C)Cc1ccc2c(n1)CN(C(=O)c1c(O)cc(C(F)F)cc1OCc1ccccc1)C2 [Example 4.52, (2-(Benzyloxy)-4-(difluoromethyl)-6-hydroxyphenyl)(2-((dimethylamino)methyl)-5,7-dihydro-6H-pyrrolo[3,4-b]pyridin-6-yl)methanone] | 100 to 1000 nM |
| CN1CC[C@@H](Oc2ccc3c(c2)CN(C(=O)c2c(O)cc(C(F)F)cc2OCc2ccccc2)CC3)C1 [Example 4.67, (R)-(2-(Benzyloxy)-4-(difluoromethyl)-6-hydroxyphenyl)(7-((1-methylpyrrolidin-3-yl)oxy)-3,4-dihydroisoquinolin-2(1H)-yl)methanone] | 100 to 1000 nM |
| CN(C)Cc1ccc2c(c1)CN(C(=O)c1c(O)cc(C(F)F)cc1OCc1ccccc1)C2 [Example 4.51, (2-(Benzyloxy)-4-(difluoromethyl)-6-hydroxyphenyl)(5-((dimethylamino)methyl)isoindolin-2-yl)methanone] | 100 to 1000 nM |
| CN1CCC(Oc2ccc3c(c2)CN(C(=O)c2c(O)cc(C(F)F)cc2OCc2ccccn2)C3)CC1 [Example 4.58, (4-(Difluoromethyl)-2-hydroxy-6-(pyridin-2-ylmethoxy)phenyl)(5-((1-methylpiperidin-4-yl)oxy)isoindolin-2-yl)methanone] | 100 to 1000 nM |
| O=C(c1c(O)cc(C(F)F)cc1OCc1ccccc1)N1Cc2ccc(OC3CCOCC3)cc2C1 [Example 4.78, (2-(Benzyloxy)-4-(difluoromethyl)-6-hydroxyphenyl) (5-((tetrahydro-2H-pyran-4-yl)oxy)isoindolin-2-yl)methanone] | 100 to 1000 nM |
| COc1ccc2c(c1)CN(C(=O)c1c(O)cc(C(F)F)cc1OCc1ccccc1)CC2 [Example 4.38, (2-(Benzyloxy)-4-(difluoromethyl)-6-hydroxyphenyl)(7-methoxy-3,4-dihydroisoquinolin-2(1H)-yl)methanone] | 1000 to 10000 nM |
| CN(C)CCOc1cc2c(c(N[C@H]3CCOC3)c1)CN(C(=O)c1c(O)cc(Cl)cc1OCc1ccccc1)CC2 [Example 22, (S)-(2-(Benzyloxy)-4-chloro-6-hydroxyphenyl)(6-(2-(dimethylamino)ethoxy)-8-((tetrahydrofuran-3-yl)amino)-3,4-dihydroisoquinolin-2(1H)-yl)methanone] | < 100 nM |
| Cn1ncc2ccc(COc3cc(C(F)F)cc(O)c3C(=O)N3CCc4cccc(N[C@H]5CCOC5)c4C3)cc21 [Example 28, (S)-(4-(Difluoromethyl)-2-hydroxy-6-((1-methyl-1H-indazol-6-yl)methoxy)phenyl)(8-((tetrahydrofuran-3-yl)amino)-3,4-dihydroisoquinolin-2(1H)-yl)methanone] | < 100 nM |
| COc1cccc(COc2cc(C(F)F)cc(O)c2C(=O)N2Cc3cccc(N[C@H]4CCOC4)c3C2)c1 [Example 4.1, (S)-(4-(Difluoromethyl)-2-hydroxy-6-((3-methoxybenzyl)oxy)phenyl)(4-((tetrahydrofuran-3-yl)amino)isoindolin-2-yl)methanone] | 100 to 1000 nM |
| CNc1cccc2c1CN(C(=O)c1c(O)cc(C(F)F)cc1OCc1ccccc1)CC2 [Example 4.36, (2-(Benzyloxy)-4-(difluoromethyl)-6-hydroxyphenyl)(8-(methylamino)-3,4-dihydroisoquinolin-2(1H)-yl)methanone] | 1000 to 10000 nM |
| COc1cc2c(c(N[C@H]3CCOC3)c1)CN(C(=O)c1c(O)cc(C(F)F)cc1OCc1ccccc1)CC2 [Example 4.20, (S)-(2-(Benzyloxy)-4-(difluoromethyl)-6-hydroxyphenyl)(6-methoxy-8-((tetrahydrofuran-3-yl)amino)-3,4-dihydroisoquinolin-2(1H)-yl)methanone] | 100 to 1000 nM |

Results, then the compound that gave them:

| IC50 | SMILES |
| --- | --- |
| 1000 to 10000 nM | N#Cc1cc(O)c(C(=O)N2CCc3cccnc32)c(OCc2ccccc2)c1 [Example 27.14, 3-(Benzyloxy)-4-(2,3-dihydro-1H-pyrrolo[2,3-b]pyridine-1-carbonyl)-5-hydroxybenzonitrile] |
| 1000 to 10000 nM | O=C(c1c(O)cc(C(F)F)cc1OCc1nc2ccccc2[nH]1)N1CCc2cccc(N[C@H]3CCOC3)c2C1 [Example 28.4, (S)-(2-((1H-Benzo[d]imidazol-2-yl)methoxy)-4-(difluoromethyl)-6-hydroxyphenyl)(8-((tetrahydrofuran-3-yl)amino)-3,4-dihydroisoquinolin-2(1H)-yl)methanone] |
| 1000 to 10000 nM | N#Cc1cc(O)c(C(=O)N2Cc3cccc(N[C@H]4CCOC4)c3C2)c(OCC2CC2)c1 [Example 12.2, (S)-3-(Cyclopropylmethoxy)-5-hydroxy-4-(4-((tetrahydrofuran-3-yl)amino)isoindoline-2-carbonyl)benzonitrile] |
| 1000 to 10000 nM | CN1CC(Oc2ccc3c(c2)CN(C(=O)c2c(O)cc(C#N)cc2OCc2ccccn2)C3)C1 [Example 10.37, 3-Hydroxy-4-(5-((1-methylazetidin-3-yl)oxy)isoindoline-2-carbonyl)-5-(pyridin-2-ylmethoxy)benzonitrile] |
| 1000 to 10000 nM | COc1cc(C#N)cc(O)c1C(=O)N1Cc2cccc(N[C@H]3CCOC3)c2C1 [Example 12.1, (S)-3-Hydroxy-5-methoxy-4-(4-((tetrahydrofuran-3-yl)amino)isoindoline-2-carbonyl)benzonitrile] |
| 1000 to 10000 nM | N#Cc1cc(O)c(C(=O)N2CCc3cc(NC4CCOC4)ccc32)c(OCc2ccccc2)c1 (centres unmarked) [Example 27.4, 3-(Benzyloxy)-5-hydroxy-4-(5-((tetrahydrofuran-3-yl)amino)indoline-1-carbonyl)benzonitrile] |
| 1000 to 10000 nM | N#Cc1cc(O)c(C(=O)N2Cc3cnc(N)cc3C2)c(OCc2ccccc2)c1 [Example 27.10, 4-(6-Amino-2,3-dihydro-1H-pyrrolo[3,4-c]pyridine-2-carbonyl)-3-(benzyloxy)-5-hydroxybenzonitrile hydroformate] |
| 100 to 1000 nM | COCCOc1ccc2c(c1)CN(C(=O)c1c(O)cc(C#N)cc1OCc1ccccc1)C2 [Example 10.35, 3-(Benzyloxy)-5-hydroxy-4-(5-(2-methoxyethoxy)isoindoline-2-carbonyl)benzonitrile] |
| 100 to 1000 nM | CN1C[C@H](Nc2cccc3c2CN(C(=O)c2c(O)cc(C#N)cc2OCc2ccccc2)C3)CC1=O (single isomer, unassigned) [Example 10.8, (R)-3-(Benzyloxy)-5-hydroxy-4-(4-((1-methyl-5-oxopyrrolidin-3-yl)amino)isoindoline-2-carbonyl)benzonitrile or (S)-3-(benzyloxy)-5-hydroxy-4-(4-((1-methyl-5-oxopyrrolidin-3-yl)amino)isoindoline-2-carbonyl)benzonitrile] |
| 100 to 1000 nM | O=C(c1c(O)cc(C(F)F)cc1OCc1ccc2ccncc2c1)N1CCc2cccc(N[C@H]3CCOC3)c2C1 [Example 28.3, (S)-(4-(Difluoromethyl)-2-hydroxy-6-(isoquinolin-7-ylmethoxy)phenyl)(8-((tetrahydrofuran-3-yl)amino)-3,4-dihydroisoquinolin-2(1H)-yl)methanone] |
